Experimental data published in patent publication US9345739B2, “Methods and compositions for the treatment of proteinuric diseases” (The General Hospital Corporation, priority 2007, dated 2016).
“Also recorded” adds a separate entry of the source.

Experiments:
[1] = tested on: cultured podocytes; test: Scrape wound (wound healing) assay, directed podocyte motility; type: cell-based, mouse; conditions: for directed podocyte motility into the wound track: wild type podocytes, vitronectin-coated surface, treatment for 24 h
Protocol: To study the directional movement of podocytes, a wound healing assay was performed. Briefly, podocytes were seeded on Vn or type I collagen coated cover-slips and cultured for 10 days at 37° C. before treated with LPS or PAN for 12-48 h. To create a scrape wound approximately 0.1 cm wide, the narrow end of a P1000 pipette tip was perpendicularly pushed through the monolayer. Then, cover-slips were washed twice with PBS and incubated in medium. After incubation, cells were fixed with 2% PFA and stained with DAPI for analysis. The cell migratory distance was calculated by averaging the distance from the wound edge to the maximally migrated cell in five distinct border zones.

[2] = tested on: cultured podocytes; test: Multiwell Boyden chamber assay, random podocyte migration on vitronectin; type: cell-based, mouse; conditions: wild type podocytes, treatment for 24 h
Protocol: Podocyte migration was analyzed using a 12-well chemotaxis chamber (Neuro Probe) according to the manufacturer's protocol. In brief, differentiated podocytes were treated with 50 μg/ml of LPS or PAN for 24 h and then harvested for the migration assay. Bottom plates were coated with vitronectin or type I collagen, while upper plates were loaded with equal number of cells (5×10^4) suspended in medium. The chamber was incubated at 37° C. for 4 h before the membrane was taken out and stained with diamidino phenylindole (DAPI). The average number of migrated cells was counted in four fields in six independent experiments.

[3] = tested on: uPAR; test: Induction of uPAR in cultured podocytes, relative quantification; type: cell-based, mouse
[4] = tested on: Rac1; test: GTPase activity assay in isolated glomeruli (Rac1); type: in vivo, mouse; conditions: wild type mice co-injected with LPS and RGDfV (every 8 hours for 24 hours)
Protocol: (§1) Rho family small GTPase activity in glomerular lysates was measured by Rho/Rac/Cdc42 activation assay kit (Cell Biolabs, INC.) following the manufacturer's protocol. Isolated glomeruli from wild type and uPAR^−/− mice, some of them treated with LPS (t=0) and with RGDfV (SEQ ID NO: 1) every 8 hours for 24 hours were obtained by standard sieve technique^25. 2 mg of glomerular lysate were used to prepare for positive or negative control by incubating with 10 μl of GTPγS or GDP respectively. For small GTPase pull-down assay, the same amount (2 mg) of glomerulus lysates from different treatments were incubated with 40 μl of Rhotekin RBD or PAK PBD agarose bead slurry for 1 h at 4° C. After washing 3 times with 1× assay buffer, beads were harvested and resuspended in LDS sample buffer. Samples were heated for 10 min at 70° C. before SDS-PAGE. After electrophoresis and protein transfer, the membranes were blocked with 5% milk, and incubated with anti-Rho, anti-Rac, and anti-Cdc42 antibodies for 1 h, followed by second antibody incubation and detection with ECL (Pierce). For loading control, 100 μg of glomerular lysates from different treatments were applied and immunoblotted with the same anti-Rho, anti-Cdc42 and anti-Rac antibodies as used above.

[5] = tested on: cdc42; test: GTPase activity assay in isolated glomeruli (cdc42); type: in vivo, mouse; conditions: wild type mice co-injected with LPS and RGDfV (every 8 hours for 24 hours)
Protocol: as §1

[6] = target: β3 integrin on cultured mouse podocytes (mouse) (UniProt O54890); test: flow cytometry, LPS treated mouse podocytes, 5 µg/ml AP5, 1 mM EDTA
[7] = target: β3 integrin on cultured mouse podocytes (mouse) (UniProt O54890); test: flow cytometry, LPS treated mouse podocytes, 5 µg/ml AP5, 0.1 mM Ca2+
[8] = target: β3 integrin on cultured mouse podocytes (mouse) (UniProt O54890); test: flow cytometry, LPS treated mouse podocytes, 5 µg/ml AP5, 0.4 mM Ca2+
[9] = target: β3 integrin on cultured mouse podocytes (mouse) (UniProt O54890); test: flow cytometry, LPS treated mouse podocytes, 5 µg/ml AP5, 1.0 mM Ca2+
[10] = target: β3 integrin on cultured mouse podocytes (mouse) (UniProt O54890); test: flow cytometry, LPS treated mouse podocytes, 5 µg/ml AP5, 2.0 mM Ca2+
[11] = tested on: β3 integrin; test: Active β3 integrin (AP5 staining) in LPS treated cultured podocytes; type: cell-based, mouse; conditions: disruption of lipid rafts
Text: Cultured podocytes were immunolabeled as described previously^8.

[12] = target: T1, αvβ3 integrin (Mus musculus, UniProt O54890+P43406); test: Recovery of already existing LPS-induced proteinuria, urine Bradford assay; type: in vivo; conditions: B6 mice, LPS at 0 and 24 h; 25 mg/kg body weight through tail vein 48 h after first injection
T1 construct: from tissue; host or cells: living wild type (C57BL/6, 'B6') mice
T1 sequence (P43406 31-1044): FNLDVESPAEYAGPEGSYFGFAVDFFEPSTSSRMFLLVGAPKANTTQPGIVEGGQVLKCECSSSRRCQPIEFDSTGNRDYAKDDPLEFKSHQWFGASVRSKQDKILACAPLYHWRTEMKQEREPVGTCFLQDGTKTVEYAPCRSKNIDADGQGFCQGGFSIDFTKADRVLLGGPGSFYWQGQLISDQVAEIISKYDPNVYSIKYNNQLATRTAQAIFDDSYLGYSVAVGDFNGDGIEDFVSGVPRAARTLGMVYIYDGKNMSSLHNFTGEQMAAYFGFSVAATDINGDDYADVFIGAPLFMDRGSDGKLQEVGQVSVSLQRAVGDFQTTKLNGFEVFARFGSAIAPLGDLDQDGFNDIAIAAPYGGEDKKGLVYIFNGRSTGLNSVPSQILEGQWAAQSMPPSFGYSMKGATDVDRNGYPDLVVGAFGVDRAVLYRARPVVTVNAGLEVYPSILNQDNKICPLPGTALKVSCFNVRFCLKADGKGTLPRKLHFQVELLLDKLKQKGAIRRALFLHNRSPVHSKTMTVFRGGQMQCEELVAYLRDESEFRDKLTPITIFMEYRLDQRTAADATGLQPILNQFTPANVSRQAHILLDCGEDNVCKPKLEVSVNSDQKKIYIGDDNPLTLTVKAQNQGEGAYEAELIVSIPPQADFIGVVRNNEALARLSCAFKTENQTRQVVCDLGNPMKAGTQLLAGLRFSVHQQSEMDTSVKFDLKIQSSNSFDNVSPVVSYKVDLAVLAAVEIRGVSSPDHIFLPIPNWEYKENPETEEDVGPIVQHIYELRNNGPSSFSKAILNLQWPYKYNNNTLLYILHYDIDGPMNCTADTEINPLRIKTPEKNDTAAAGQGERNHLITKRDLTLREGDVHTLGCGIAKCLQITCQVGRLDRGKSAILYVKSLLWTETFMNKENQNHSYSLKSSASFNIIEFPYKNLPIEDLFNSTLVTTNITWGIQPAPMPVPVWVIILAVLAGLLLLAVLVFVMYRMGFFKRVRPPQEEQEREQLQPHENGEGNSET
T1 sequence (O54890 26-787): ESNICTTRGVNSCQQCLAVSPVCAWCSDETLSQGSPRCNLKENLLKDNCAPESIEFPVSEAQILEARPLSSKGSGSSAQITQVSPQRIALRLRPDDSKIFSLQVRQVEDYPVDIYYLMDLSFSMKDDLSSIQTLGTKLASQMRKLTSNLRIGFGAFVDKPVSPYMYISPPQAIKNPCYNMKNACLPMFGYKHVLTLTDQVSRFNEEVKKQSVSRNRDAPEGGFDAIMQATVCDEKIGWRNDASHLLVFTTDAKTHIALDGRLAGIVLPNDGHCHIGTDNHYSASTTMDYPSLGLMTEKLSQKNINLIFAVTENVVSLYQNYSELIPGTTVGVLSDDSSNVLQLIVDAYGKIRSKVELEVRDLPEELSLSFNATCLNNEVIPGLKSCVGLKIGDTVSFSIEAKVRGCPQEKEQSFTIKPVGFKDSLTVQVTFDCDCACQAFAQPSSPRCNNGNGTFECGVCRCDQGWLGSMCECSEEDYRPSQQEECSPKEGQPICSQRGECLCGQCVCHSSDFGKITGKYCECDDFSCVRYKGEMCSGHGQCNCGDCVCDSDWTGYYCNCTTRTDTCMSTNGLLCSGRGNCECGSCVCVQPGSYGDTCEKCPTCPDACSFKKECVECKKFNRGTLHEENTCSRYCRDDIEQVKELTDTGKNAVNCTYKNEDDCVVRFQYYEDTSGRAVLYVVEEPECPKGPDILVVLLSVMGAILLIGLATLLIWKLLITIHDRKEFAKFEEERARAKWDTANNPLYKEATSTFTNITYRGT
Protocol: B6 mice are injected twice (0, 24 h) with LPS to induce and maintain proteinuria. 48 h after first injection, S247 (n=6) is administered (25 mg/kg body weight) through tail vein. Control (n=5) received the same amount of PBS. 0, 48 h, 66 h urine was collected for Braford assay.

[13] = target: T1, αvβ3 integrin; type: in vivo; conditions: mice, LPS only (200 μg intraperitoneally), urine 24 h after LPS
Protocol: Immediately after the first injection, 200 μg of LPS was injected intraperitoneally into each mouse to induce proteinuria. 24 h after LPS injection, urine was collected for Braford assay.

[14] = tested on: wild type and uPAR−/− mice; test: LPS mouse model of proteinuria in wild type and uPAR−/− mice, urine Bradford assay; type: in vivo; set-up: unit not given beside the values; conditions: LPS injection
Text: All animal studies were approved by the Subcommittee on Research Animal Care of the Massachusetts General Hospital. uPAR^−/− mice and uPA^−/− mice on a mixed background of 75% C57BL/6 and 25% 129 Swiss were obtained from University of Leuven, Belgium; Vn^−/− mice (C57BL/6) were obtained from Dr. David Ginsburg, University of Michigan; β3 integrin^−/− mice (C57BL/6) were obtained from Dr. Raghuram Kalluri, Boston. C57BL/6 and 129 Swiss mice were purchased from Jackson Laboratory (Bar Harbor). The LPS mouse model was utilized as previously described^9. The induction of B7-1 was used as a control for the effectiveness of LPS. Rat PAN nephrosis model was set up by a single intraperitoneal injection of puromycin (15 mg/100 g of body weight, Sigma-Aldrich) into Sprague-Dawley rats as described before^27. NZB/W F1 mice were purchased from the Jackson Laboratory and analyzed after 20 weeks when proteinuria and Lupus glomerulonephritis were present. As diabetic nephropathy rat model, we used Sprague Dawley rats treated with Streptozotocin. Hyperglycaemic state was induced by an intraperitoneal Streptozotocin injection (50-70 mg/kg body weight, in citrate buffer 10 mmol/L, pH 4.5). The hyperglycaemic state developed within 48 h and was maintained during the lifetime of the animals. No insulin administration was required. Glycosuria was evaluated with test strips of the Uriscan TM (YD Diagnostics, VWR, Montréal, QC, Canada) and glycaemia with the AccuSoft Monitoring System (Roche Diagnostics, Laval, QC, Canada). At the end of the study, glycaemia values were 4.3±0.53 and 8.5±0.7 mmol/L for 3 months-old and 12 months-old normoglycaemic animals, respectively, and 21.2±0.9 and 33.9±4.0 mmol/L for 3 months-old and 12 months-old diabetic animals, respectively.
uPAR-cDNA plasmids were introduced into uPAR^−/− mouse using the TransIT in vivo gene delivery system (Mims) as described previously^32,8. The following cDNAs and vector constructs were used for gene delivery: uPAR; mutated uPAR D262A^38 (kind gift from Y Wei and H A Chapman, University of California, San Francisco); β3 integrin and the constitutively active form of β3 integrin, D616-690 (β3Δ616-690)^48; Podocin promoter vector p2.5^33 (a kind gift from Dr. L B Holzman, University of Michigan) for Pod-uPAR; ICAM-2 promoter vector^34 for ICAM-2-uPAR. Tissues were analyzed for expression as described previously^8.

urokinase
podocyte directional migration / motility ([1]; cultured podocytes, addition of external urokinase): did not alter; also recorded: did not modify

CN(C)c1ncnc2c1ncn2[C@@H]1O[C@H](CO)[C@@H](N)[C@H]1O [PAN, puromycin aminonucleoside]
directed podocyte motility into the wound track [1]: 79.31±3.72 | podocyte migration (migrated podocytes) [2]: 67±4.9 | Relative quantification of uPAR induction [3]: 0.61±0.10

cyclo-[Arg-Gly-Asp-D-Phe-Val] [cyclo-RGDfV]
induction of active Rac1 in glomeruli [4]: inhibited | induction of active cdc42 in glomeruli [5]: inhibited

anti-active β3 integrin antibody AP5 (GTI)
Fluorescent intensity units (fluorescent intensity units) [6]: 3020 | Fluorescent intensity units (fluorescent intensity units) [7]: 3060 | Fluorescent intensity units (fluorescent intensity units) [8]: 1640 | Fluorescent intensity units (fluorescent intensity units) [9]: 535 | Fluorescent intensity units (fluorescent intensity units) [10]: 312

Methyl-β-cyclodextrin
activation of β3 integrin in response to LPS (AP5 staining) [11]: abrogated

O=C(O)C[C@H](NC(=O)CNC(=O)c1cncc(NC2=NCC(O)CN2)c1)c1cc(Cl)cc(Br)c1O (stereo partly drawn) [S247]
already existing proteinuria; urinary protein at timepoint 66 h [12]: Reduction of urinary protein

lipopolysaccharide [LPS]
proteinuria (urine Bradford assay) [13]: 0.924±0.1055 | directed podocyte motility into the wound track [1]: 85.34±4.1 | podocyte migration (migrated podocytes) [2]: 72±5.5 | Relative quantification of uPAR induction [3]: 0.49±0.06 | proteinuria (urine Bradford assay) ([14]; uPAR−/− mice reconstituted with uPAR-cDNA): 0.92±0.46 | proteinuria (urine Bradford assay) ([14]; uPAR−/− mice which received control plasmids): 0.26±0.15 | proteinuria (urine Bradford assay) ([14]; uPAR−/− mice): 0.32±0.14 | proteinuria (urine Bradford assay) ([14]; wild type mice): 0.82±0.32
